One experiment deals with PDE4. In words: Evaluation of PDE4 inhibitory activity, scintillation proximity assay. The format is biochemical. The conditions noted are these: scintillation proximity assay; class symbols of Evaluation 1; read-out: PDE4 Inhibitory Activity (concentration for the inhibition rate of 50%, IC50), Evaluation 1. Put shortly: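 SPA with [2,8-3H]-cAMP and diluted PDE4 enzyme preparation in 50 mM Tris-HCl pH 7.4, 8.3 mM MgCl2, 1.7 mM EGTA, 3 mg/mL BSA, 120 min at room temperature. Product captured on ZnSO4-containing YSi-SPA beads, scintillation counted; IC50 from inhibition curves vs DMSO control and no-enzyme blank.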
For the compound `CC(O)c1cc(-c2nccs2)c2oc(N3CC4CCC(C3)N4)nc2c1` (stereo not drawn) [Example 106, 1-(2-(3,8-Diazabicyclo[3.2.1]octan-3-yl)-7-(thiazol-2-yl)benzo[d]oxazol-5-yl)ethan-1-ol], the IC50 was < 100 nM.
As to `CC(O)c1cc(-c2nccs2)c2oc(N3CC4CC(C3)N4)nc2c1` (stereo not drawn) [Example 107, 1-(2-(3,6-Diazabicyclo[3.1.1]heptan-3-yl)-7-(thiazol-2-yl)benzo[d]oxazol-5-yl)ethan-1-ol], the IC50 was in the range of 100 to 1000 nM.
As for `COC(C)(C)c1cc(-c2nccs2)c2oc(N3CC4CCC(C3)N4)nc2c1` [Example 175, 2-(3,8-Diazabicyclo[3.2.1]octan-3-yl)-5-(2-methoxypropan-2-yl)-7-(thiazol-2-yl)benzo[d]oxazole], the IC50 was < 100 nM.
Turning to `CCOC(=O)c1cc(-c2nccs2)c2oc(N3CC4CC(C3)N4)nc2c1C(F)(F)F` [Example 165, Ethyl 2-(3,6-diazabicyclo[3.1.1]heptan-3-yl)-7-(thiazol-2-yl)-4-(trifluoromethyl)benzo[d]oxazole-5-carboxylate], the IC50 was < 100 nM.
As to `OCc1ccc(-c2nccs2)c2oc(N3CC4CC(C3)N4)nc12` [Example 133, (2-(3,6-Diazabicyclo[3.1.1]heptan-3-yl)-7-(thiazol-2-yl)benzo[d]oxazol-4-yl)methanol], the IC50 is < 100 nM.
Consider `c1csc(-c2ccc(OC3CCOC3)c3nc(N4CC5CCC(C4)N5)oc23)n1` (stereo not drawn) [Example 84, 2-(3,8-Diazabicyclo[3.2.1]octan-3-yl)-4-((tetrahydrofuran-3-yl)oxy)-7-(thiazol-2-yl)benzo[d]oxazole], for which the IC50 was < 100 nM.
For `c1csc(-c2ccc(OC3CCC3)c3nc(N4CC5CCC(C4)N5)oc23)n1` [Example 81, 2-(3,8-Diazabicyclo[3.2.1]octan-3-yl)-4-cyclobutoxy-7-(thiazol-2-yl)benzo[d]oxazole], the IC50 was < 100 nM.
Take `COC(c1cc(-c2nccs2)c2oc(N3CC4CCCC(C3)N4)nc2c1)C(F)(F)F` (stereo not drawn) [Example 145, 2-(3,9-Diazabicyclo[3.3.1]nonan-3-yl)-7-(thiazol-2-yl)-5-(2,2,2-trifluoro-1-methoxyethyl)benzo[d]oxazole]: the IC50 was < 100 nM.
Still for that read-out and setting: the result for `OC(O)(c1cc(-c2nccs2)c2oc(N3CC4CC(C3)N4)nc2c1)C(F)(F)F` [Example 158, 1-(2-(3,6-Diazabicyclo[3.1.1]heptan-3-yl)-7-(thiazol-2-yl)benzo[d]oxazol-5-yl)-2,2,2-trifluoroethane-1,1-diol] reads 100 to 1000 nM; that for `COCC(O)COc1ccc(-c2nccs2)c2oc(N3CC4CCC(C3)N4)nc12` (stereo not drawn) [Example 83, 1-((2-(3,8-Diazabicyclo[3.2.1]octan-3-yl)-7-(thiazol-2-yl)benzo[d]oxazol-4-yl)oxy)-3-methoxypropan-2-ol], < 100 nM.
With `OC(c1ccc(-c2nccs2)c2oc(N3CC4CC(C3)N4)nc12)C(F)(F)F` (stereo not drawn) [Example 121, 1-(2-(3,6-Diazabicyclo[3.1.1]heptan-3-yl)-7-(thiazol-2-yl)benzo[d]oxazol-4-yl)-2,2,2-trifluoroethan-1-ol], the IC50 is < 100 nM.
With `CSc1cc(-c2nccs2)c2oc(N3CC4CCC(C3)N4)nc2c1` [Example 39, 2-(3,8-Diazabicyclo[3.2.1]octan-3-yl)-5-(methylthio)-7-(thiazol-2-yl)benzo[d]oxazole], the IC50 is < 100 nM.
`FC(F)(F)c1c(Cl)cc(-c2nccs2)c2oc(N3CC4CCC(C3)N4)nc12` [Example 20, 2-(3,8-Diazabicyclo[3.2.1]octan-3-yl)-5-chloro-7-(thiazol-2-yl)-4-(trifluoromethyl)benzo[d]oxazole]: the IC50 was < 100 nM.
On the same count and under the same terms, the result for `OCc1cc(-c2nccs2)c2oc(N3CC4CCC(C3)N4)nc2c1C(F)(F)F` [Example 170, (2-(3,8-Diazabicyclo[3.2.1]octan-3-yl)-7-(thiazol-2-yl)-4-(trifluoromethyl)benzo[d]oxazol-5-yl)methanol] reads < 100 nM.
On to `O=C(c1ccc(-c2nccs2)c2oc(N3CC4CCC(C3)N4)nc12)N1CCOCC1` [Example 116, (2-(3,8-Diazabicyclo[3.2.1]octan-3-yl)-7-(thiazol-2-yl)benzo[d]oxazol-4-yl) (morpholino)methanone], for which the IC50 was < 100 nM.
Turning to `COCCOC(c1cc(-c2nccs2)c2oc(N3CC4CCC(C3)N4)nc2c1)C(F)(F)F` (stereo not drawn) [Example 147, 2-(3,8-Diazabicyclo[3.2.1]octan-3-yl)-7-(thiazol-2-yl)-5-(2,2,2-trifluoro-1-(2-methoxyethoxy)ethyl)benzo[d]oxazole], the IC50 was < 100 nM.
Consider `CC(=O)Nc1ccc(-c2nccs2)c2oc(N3CC4CCCC(C3)N4)nc12` [Example 34, N-(2-(3,9-Diazabicyclo[3.3.1]nonan-3-yl)-7-(thiazol-2-yl)benzo[d]oxazol-4-yl)acetamide], for which the IC50 is < 100 nM.
As to `COCCOc1cc(-c2nccs2)c2oc(N3CC4CCC(C3)N4)nc2c1` [Example 69, 2-(3,8-Diazabicyclo[3.2.1]octan-3-yl)-5-(2-methoxyethoxy)-7-(thiazol-2-yl)benzo[d]oxazole], the IC50 is < 100 nM.
`O=C(c1cc(-c2nccs2)c2oc(N3CC4CCC(C3)N4)nc2c1)N1CCOCC1` [Example 95, (2-(3,8-Diazabicyclo[3.2.1]octan-3-yl)-7-(thiazol-2-yl)benzo[d]oxazol-5-yl) (morpholino)methanone]: the IC50 is < 100 nM.

Staying with this experiment, now noted: scintillation proximity assay; read-out: PDE4 Inhibitory Activity (Evaluation 1; concentration for the inhibition rate of 50%).
Take `CC(C)(O)C(F)(F)Oc1ccc(-c2cscn2)c2oc(N3CC4CC(C3)N4)nc12` [Example 307, 1-((2-(3,6-Diazabicyclo[3.1.1]heptan-3-yl)-7-(thiazol-4-yl)benzo[d]oxazol-4-yl)oxy)-1,1-difluoro-2-methylpropan-2-ol]: the IC50 was < 100 nM.
For `OC1(c2cc(-c3nccs3)c3oc(N4CC5CCC(C4)N5)nc3c2OC(F)(F)F)CC1` [Example 274, 1-(2-(3,8-Diazabicyclo[3.2.1]octan-3-yl)-7-(thiazol-2-yl)-4-(trifluoromethoxy)benzo[d]oxazol-5-yl)cyclopropan-1-ol], the IC50 was < 100 nM.
As for `CC(O)(c1ccc(-c2nccs2)c2oc(N3CC4CCC(C3)N4)nc12)C(F)(F)F` (stereo not drawn) [Example 236, 2-(2-(3,8-Diazabicyclo[3.2.1]octan-3-yl)-7-(thiazol-2-yl)benzo[d]oxazol-4-yl)-1,1,1-trifluoropropan-2-ol], the IC50 is < 100 nM.
With `CC(=O)c1ccc(-c2nccs2)c2oc(N3CC4CC(C3)N4)nc12` [Example 244, 1-(2-(3,6-Diazabicyclo[3.1.1]heptan-3-yl)-7-(thiazol-2-yl)benzo[d]oxazol-4-yl)ethan-1-one], the IC50 was < 100 nM.
In the case of `FC(F)(F)COC(c1ccc(-c2nccs2)c2oc(N3CC4CC(C3)N4)nc12)C(F)(F)F` (stereo not drawn) [Example 223, 2-(3,6-Diazabicyclo[3.1.1]heptan-3-yl)-7-(thiazol-2-yl)-4-(2,2,2-trifluoro-1-(2,2,2-trifluoroethoxy)ethyl)benzo[d]oxazole], the IC50 is < 100 nM.
Turning to `CC(O)(c1ccc(-c2nccs2)c2oc(N3CC4CC(C3)N4)nc12)C(F)(F)F` (stereo not drawn) [Example 271, 2-(2-(3,6-Diazabicyclo[3.1.1]heptan-3-yl)-7-(thiazol-2-yl)benzo[d]oxazol-4-yl)-1,1,1-trifluoropropan-2-ol], the IC50 was < 100 nM.
Same read-out and setting: the result for `CC(C)(O)C(F)(F)Oc1ccc(-c2ccccn2)c2oc(N3CC4CC(C3)N4)nc12` [Example 289, 1-((2-(3,6-Diazabicyclo[3.1.1]heptan-3-yl)-7-(pyridin-2-yl)benzo[d]oxazol-4-yl)oxy)-1,1-difluoro-2-methylpropan-2-ol] reads < 100 nM; that for `OC1CCC(Oc2ccc(-c3nccs3)c3oc(N4CC5CC(C4)N5)nc23)CC1` (stereo not drawn) [Example 305, 4-((2-(3,6-Diazabicyclo[3.1.1]heptan-3-yl)-7-(thiazol-2-yl)benzo[d]oxazol-4-yl)oxy)cyclohexan-1-ol], < 100 nM.
Take `O=C(O)c1cc(-c2nccs2)c2oc(N3CC4CCCC(C3)N4)nc2c1OC(F)(F)F` [Example 191, 2-(3,9-Diazabicyclo[3.3.1]nonan-3-yl)-7-(thiazol-2-yl)-4-(trifluoromethoxy)benzo[d]oxazole-5-carboxylic acid]: the IC50 was 100 to 1000 nM.
As to `CC(O)(O)C(F)(F)Oc1ccc(-c2nccs2)c2oc(N3CC4CC(C3)N4)nc12` [Example 377, 1-((2-(3,6-Diazabicyclo[3.1.1]heptan-3-yl)-7-(thiazol-2-yl)benzo[d]oxazol-4-yl)oxy)-1,1-difluoropropane-2,2-diol], the IC50 is < 100 nM.
Still for that read-out and setting: for `CCOC(c1ccc(-c2nccs2)c2oc(N3CC4CCC(C3)N4)nc12)C(F)(F)F` (stereo not drawn) [Example 220, 2-(3,8-Diazabicyclo[3.2.1]octan-3-yl)-4-(1-ethoxy-2,2,2-trifluoroethyl)-7-(thiazol-2-yl)benzo[d]oxazole] the value was < 100 nM.
As to `ON1C2CC1CN(c1nc3c(OC(F)(F)F)ccc(-c4nccs4)c3o1)C2` [Example 380, 3-(7-(Thiazol-2-yl)-4-(trifluoromethoxy)benzo[d]oxazol-2-yl)-3,6-diazabicyclo[3.1.1]heptan-6-ol], the IC50 is < 100 nM.
Turning to `CON=C(C)c1cc(-c2nccs2)c2oc(N3CC4CCC(C3)N4)nc2c1OC(F)(F)F` (mixture of isomers) [Example 218, (E)-1-(2-(3,8-diazabicyclo[3.2.1]octan-3-yl)-7-(thiazol-2-yl)-4-(trifluoromethoxy)benzo[d]oxazol-5-yl)ethan-1-one O-methyloxime and (Z)-1-(2-(3,8-diazabicyclo[3.2.1]octan-3-yl)-7-(thiazol-2-yl)-4-(trifluoromethoxy)benzo[d]oxazol-5-yl)ethan-1-one O-methyloxime], the IC50 was < 100 nM.
`COC(c1cc(-c2nccs2)c2oc(N3CC4CCC(C3)N4)nc2c1OC(F)(F)F)C(F)F` (stereo not drawn) [Example 209, 2-(3,8-Diazabicyclo[3.2.1]octan-3-yl)-5-(2,2-difluoro-1-methoxyethyl)-7-(thiazol-2-yl)-4-(trifluoromethoxy)benzo[d]oxazole]: the IC50 was < 100 nM.

The values above are taken from patent US12239643B2, “Therapeutic agent for inflammatory diseases, autoimmune diseases, fibrotic diseases, and cancer diseases” (MEIJI SEIKA PHARMA CO., LTD., priority 2018, dated 2025).
